Reference: article PMC9919727 (Molecules, 2023)
Read-outs that look alike come from different tables or passages of the source.

Legend:
[1] = molecular target: Carbonic anhydrase II (bCA II) (Bos taurus, UniProt P00921); assay: CA II inhibition assay (4-nitrophenyl acetate hydrolysis); type: biochemical, bovine; conditions: for inhibition of the enzyme CA II (in words): under the conditions of the assay
Experimental: For the CA II assay: Carbonic anhydrase II (bCA II, ≥3000 W-A units/mg from bovine erythrocytes) as well as 4-nitrophenyl acetate (4-NA) were purchased from Sigma.
The substrate (25 µL, [4-NA] = 0.75 mM, 0.50 mM, 0.25 mM, 0.15 mM) was added to start the enzymatic reaction. […] The relative inhibition was determined as the quotient of the slopes (compound divided by blank) of the linear ranges.

[2] = tested on: A2780 (ovarian carcinoma); assay: SRB cytotoxicity assay, A2780; type: cell-based; conditions: Homo sapiens, read-out: EC50 A2780
Experimental: (§1) Expression of CA II and its involvement cancer has previously been established for A375 [82], HT29 [83] as well as for MCF-7 cells. Cell line A2780 and non-malignant fibroblasts (NIH 3T3) were employed for comparison.
(§2) NMR spectra were recorded using the Varian spectrometers (Darmstadt, Germany) DD2 and VNMRS (400 and 500 MHz, respectively). MS spectra were taken on a Advion expressionL CMS mass spectrometer (Ithaca, USA; positive ion polarity mode, solvent: methanol, solvent flow: 0.2 mL/min, spray voltage: 5.17 kV, source voltage: 77 V, APCI corona discharge: 4.2 μA, capillary temperature: 250 °C, capillary voltage: 180 V, sheath gas: N2). Thin-layer chromatography was performed on pre-coated silica gel plates supplied by Macherey-Nagel (Düren, Germany). IR spectra were recorded on a Spectrum 1000 FT-IR-spectrometer from Perkin Elmer (Rodgau, Germany). The UV/Vis-spectra were recorded on a Lambda 14 spectrometer from Perkin Elmer (Rodgau, Germany); optical rotations were measured using a JASCO-P2000 instrument (JASCO Germany GmbH, Pfungstadt, Germany) The melting points were determined using the Leica hot stage microscope Galen III (Leica Biosystems, Nussloch, Germany) and are uncorrected. The solvents were dried according to usual procedures. Microanalyses were performed with an Elementar Vario EL (CHNS) instrument (Elementar Analysensysteme GmbH, Elementar-Straße 1, D-63505 Langenselbold, Germany). All dry solvents were distilled over respective drying agents except for DMF which was distilled and stored under argon and molecular sieve. Reactions using air- or moisture-sensitive reagents were carried out under argon atmosphere in dried glassware. Triethylamine was stored over potassium hydroxide. Biological assays were performed as previously reported employing cell lines obtained from the Department of Oncology [Martin-Luther-University Halle Wittenberg; they were bought from ATCC: malignant: A 375, HT29, MCF7, and A2780; non-malignant: NIH 3T3]. Oleanolic and ursolic acid were obtained from Betulinines (Strbrna Skalice, Czech Republic) and used as received. Glycyrrhetinic acid was bought from Orgentis Chemicals GmbH (Gatersleben).
(§3) For the SRB assay: cells were seeded into 96-well plates on day zero at appropriate cell densities to prevent confluence of the cells during the period of the experiment. […] After 72 h of treatment, the supernatant media from the 96-well plates were discarded, then the cells were fixed with 10% trichloroacetic acid and allowed to rest at 4 °C. After 24 h of fixation, the cells were washed in a strip washer and then dyed with SRB solution (200 μL, 10 mM) for 20 min. Then the plates were washed four times with 1% acetic acid to remove the excess of the dye and allowed to air-dry overnight. Tris base solution (200 μL, 10 mM) was added to each well. The absorbance was measured with a 96-well plate reader from Tecan Spectra.

[3] = tested on: HT29 (colorectal adenocarcinoma); assay: SRB cytotoxicity assay, HT29; type: cell-based; conditions: Homo sapiens, read-out: EC50 HT29
Experimental: as §1, §2, §3

[4] = tested on: NIH 3T3 (non-malignant fibroblasts); assay: SRB cytotoxicity assay, NIH 3T3; type: cell-based; conditions: Mus musculus, read-out: EC50 NIH 3T3
Experimental: as §1, §2, §3

[5] = tested on: MCF-7 (breast adenocarcinoma); assay: SRB cytotoxicity assay, MCF-7; type: cell-based; conditions: Homo sapiens, read-out: EC50 MCF-7
Experimental: as §1, §2, §3

[6] = tested on: A375 (epithelial melanoma); assay: SRB cytotoxicity assay, A375; type: cell-based; conditions: Homo sapiens, read-out: EC50 A375
Experimental: as §1, §2
as §3, with “Then the plates were washed four times with 1% acetic acid to remove the excess of the dye and allowed to air-dry overnight. Tris base solution (200 μL, 10 mM) was added to each well.” left out

[7] = A2780, SRB assay, after 72 h of treatment
[8] = HT-29, SRB assay, after 72 h of treatment
[9] = NIH3T3, SRB assay, after 72 h of treatment, non-malignant fibroblasts
[10] = MCF7, SRB assay, after 72 h of treatment
[11] = A-375, SRB assay, after 72 h of treatment
[12] = at 10 µM concentration, read-out: Inhibition [%]

Chain of Carbonic anhydrase II (bCA II) (P00921 whole entry): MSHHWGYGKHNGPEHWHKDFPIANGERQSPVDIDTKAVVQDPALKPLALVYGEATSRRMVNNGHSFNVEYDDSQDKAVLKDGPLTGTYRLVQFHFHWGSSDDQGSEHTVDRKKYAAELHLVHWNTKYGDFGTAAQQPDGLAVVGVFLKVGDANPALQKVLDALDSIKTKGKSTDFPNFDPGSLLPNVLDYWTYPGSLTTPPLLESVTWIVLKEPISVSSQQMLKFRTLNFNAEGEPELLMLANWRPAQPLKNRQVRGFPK

SMILES | melting point | EC50 [2, 7] | EC50 [3, 8] | EC50 [4, 9] | EC50 [5, 10] | inhibition of the enzyme CA II (in words) [1] | also measured
C=C(C)[C@@H]1CC[C@]2(CO)CC[C@]3(C)[C@H](CC[C@@H]4[C@@]5(C)CC[C@H](OC(C)=O)C(C)(C)[C@@H]5CC[C@]43C)[C@@H]12 [Compound 2, 3-O-Acetyl-betulin] | – | – | – | – | – | – | inhibition rates (CA II) ([1]; conditions of the assay): less than 10%
C=C(C)[C@@H]1CC[C@]2(COC(=O)CCC(=O)O)CC[C@]3(C)[C@H](CC[C@@H]4[C@@]5(C)CC[C@H](OC(C)=O)C(C)(C)[C@@H]5CC[C@]43C)[C@@H]12 [Compound 3, 4-{[(3β)-3-(Acetyloxy)lup-20(29)-en-28-yl]oxy}-4-oxobutanoic Acid] | 189 to 191 °C | – | – | – | – | – | inhibition rates (CA II) [1]: less than 10%
C=C(C)[C@@H]1CC[C@]2(COC(=O)CCC(=O)Nc3nnc(S(N)(=O)=O)s3)CC[C@]3(C)[C@H](CC[C@@H]4[C@@]5(C)CC[C@H](OC(C)=O)C(C)(C)[C@@H]5CC[C@]43C)[C@@H]12 [Compound 6, (3β)-3-(Acetyloxy)lup-20(29)-en-28-yl 4-{[5-(aminosulfonyl)-1,3,4-thiadiazol-2-yl]amino}-4-oxobutanoate] | – | – | – | – | – | – | EC50 ([2]; A2780, 72 h): 9.3 ± 1.2 µM; EC50 ([3]; HT-29, 72 h): 10.2 ± 1.3 µM; EC50 ([4]; NIH3T3, 72 h): 9.5 ± 1 µM; EC50 ([5]; MCF7, 72 h): 8.9 ± 0.7 µM; EC50 ([6]; A-375, 72 h): 8.5 ± 0.7 µM; Ki [1]: 0.129 ± 0.02 µM; inhibition at 10 µM [1]: 93 ± 0.1%; mode of inhibition of CA II [1]: competitive inhibitor
CC(=O)O[C@H]1CC[C@]2(C)[C@H]3CC=C4[C@@H]5CC(C)(C)CC[C@]5(COC(=O)CCC(=O)Nc5nnc(S(N)(=O)=O)s5)CC[C@@]4(C)[C@]3(C)CC[C@H]2C1(C)C [Compound 18, (3β) 3-(Acetyloxy)olean-12-en-28-yl-4-{[5-(aminosulfonyl)-1,3,4-thiadiazol-2-yl]amino}-4-oxobutanoate] | 198 to 200 °C | 11.8 ± 1.4 µM | 14.2 ± 1.4 µM | 14 ± 1.5 µM | 10.6 ± 1.4 µM | – | EC50 [6, 11]: 10.1 ± 0.8 µM; inhibition at 10 µM [1, 12]: 49.4 ± 0.1%
CC(=O)O[C@H]1CC[C@]2(C)[C@H]3CC=C4[C@@H]5[C@@H](C)[C@H](C)CC[C@]5(COC(=O)CCC(=O)Nc5nnc(S(N)(=O)=O)s5)CC[C@@]4(C)[C@]3(C)CC[C@H]2C1(C)C [Compound 19, (3β)-3-(Acetyloxy)urs-12-en-28-yl-4-{[5-(aminosulfonyl)-1,3,4-thiadiazol-2-yl]amino}4-oxobutanoate] | 190 to 192 °C | 12.5 ± 1.7 µM | 15 ± 0.6 µM | 14.8 ± 1.5 µM | 12.4 ± 0.8 µM | – | EC50 [6, 11]: 13.7 ± 1.1 µM; Ki ([1]; CA II, Dixon plot, read-out: Ki): 0.91 ± 0.17 µM; inhibition at 10 µM [1, 12]: 70.8 ± 0.2%
CC(=O)O[C@H]1CC[C@]2(C)[C@H]3C(=O)C=C4[C@@H]5C[C@@](C)(COC(=O)CCC(=O)Nc6nnc(S(N)(=O)=O)s6)CC[C@]5(C)CC[C@@]4(C)[C@]3(C)CC[C@H]2C1(C)C [Compound 20, (3β, 20β) 3-(Acetyloxy)-11-oxoolean-12-en-30-yl-4-{[5-(aminosulfonyl)-1,3,4-thiadiazol-2-yl]amino}-4-oxobutanoate] | 179 to 181 °C | 9.8 ± 0.8 µM | 13 ± 1.3 µM | 11.9 ± 1.7 µM | 10.5 ± 1.2 µM | – | EC50 [6, 11]: 9.2 ± 0.5 µM; inhibition at 10 µM [1, 12]: 96.8 ± 0.2%
COc1cccc2c1C(=O)c1c(O)c3c(c(O)c1C2=O)C[C@@](O)(C(=O)CO)C[C@@H]3O[C@H]1C[C@H](N)[C@H](O)[C@H](C)O1 [DX, doxorubicin, reference compound] | – | 0.1 ± 0.01 µM | 0.25 ± 0.02 µM | 0.01 ± 0.001 µM | 0.1 ± 0.01 µM | – | –
C=C(C)[C@@H]1CC[C@]2(CO)CC[C@]3(C)[C@H](CC[C@@H]4[C@@]5(C)CC[C@H](O)C(C)(C)[C@@H]5CC[C@]43C)[C@@H]12 [betulin, reference compound] | – | – | – | – | – | did not inhibit the enzyme | –
C=C(C)[C@@H]1CC[C@]2(C(=O)O)CC[C@]3(C)[C@H](CC[C@@H]4[C@@]5(C)CC[C@H](O)C(C)(C)[C@@H]5CC[C@]43C)[C@@H]12 [betulinic acid, reference compound] | – | – | – | – | – | did not inhibit the enzyme | –
CC1(C)[C@@H](O)CC[C@]2(C)[C@H]3C(=O)C=C4[C@@H]5C[C@@](C)(C(=O)O)CC[C@]5(C)CC[C@@]4(C)[C@]3(C)CC[C@@H]12 [glycyrrhetinic acid, reference compound] | – | – | – | – | – | did not inhibit the enzyme | –
CC1(C)CC[C@]2(C(=O)O)CC[C@]3(C)C(=CC[C@@H]4[C@@]5(C)CC[C@H](O)C(C)(C)[C@@H]5CC[C@]43C)[C@@H]2C1 [oleanolic acid, reference compound] | – | – | – | – | – | did not inhibit the enzyme | –
C[C@H]1[C@H](C)CC[C@]2(C(=O)O)CC[C@]3(C)C(=CC[C@@H]4[C@@]5(C)CC[C@H](O)C(C)(C)[C@@H]5CC[C@]43C)[C@H]12 [ursolic acid, reference compound] | – | – | – | – | – | did not inhibit the enzyme | –
